How the values were obtained:
[1] = biological target: T1, Human melanin-concentrating hormone (MCH1) (Homo sapiens, UniProt Q99705); assay: Radioligand binding, human melanin-concentrating hormone MCH1 membranes, FlashPlate, [125I]-S36057; conditions: compound at 10 μM, [125I]-S36057
T1 construct: purchased Perkin Elmer Biosignal
Procedure, shortened: (§1)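 Cloned human receptor membranes were coated onto FlashPlate wells and incubated with radioligand and compound (added from a 0.5 mM DMSO daughter plate) for 1 hour at room temperature in the dark. Scintillation counting gave percent inhibition, with DMSO defining total and reference ligand defining non-specific binding.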

Human μ-opioid (MOP) = biological target: T2, Human μ-opioid (MOP) (Homo sapiens, UniProt P35372); assay: Radioligand binding, human μ-opioid (MOP) membranes, FlashPlate, [3H]-Naloxone; conditions: compound at 10 μM; [3H]-Naloxone
T2 construct: purchased Perkin Elmer Biosignal
Procedure, shortened: as §1

Mouse urotensin (mUR2) = biological target: T3, Mouse urotensin (mUR2) (Mus musculus, UniProt Q8VIH9); assay: Radioligand binding, mouse urotensin mUR2 membranes, FlashPlate, [125I]-Urotensin II; conditions: compound at 10 μM; [125I]-Urotensin II
T3 construct: purchased Perkin Elmer Biosignal
T3 sequence (Q8VIH9 1-385): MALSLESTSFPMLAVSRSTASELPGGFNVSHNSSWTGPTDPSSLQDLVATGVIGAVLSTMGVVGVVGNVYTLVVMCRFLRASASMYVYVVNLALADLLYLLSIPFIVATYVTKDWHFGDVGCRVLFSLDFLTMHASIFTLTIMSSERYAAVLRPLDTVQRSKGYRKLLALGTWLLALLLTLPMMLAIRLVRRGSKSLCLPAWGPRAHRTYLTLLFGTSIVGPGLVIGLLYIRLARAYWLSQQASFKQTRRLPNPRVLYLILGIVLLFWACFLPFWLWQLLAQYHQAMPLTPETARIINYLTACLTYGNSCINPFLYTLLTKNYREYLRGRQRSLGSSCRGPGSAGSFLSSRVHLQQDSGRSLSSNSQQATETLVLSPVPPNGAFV
Procedure, shortened: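 Cloned mouse urotensin (mUR2) receptor membranes from Perkin Elmer Biosignal were immobilized in FlashPlate microplates using a proprietary coating. Each well got 19.5 μl buffer, then 0.5 μl of DMSO, reference ligand, or compound. Adding 5 μl of [125I]-Urotensin II, diluted to 5× final concentration in binding buffer, started binding. Plates were sealed with TopSeal-A and incubated 1 hour at room temperature in the dark. Wells were counted for 30 seconds each on a TopCount after a 60-second delay, and percentage inhibition was calculated.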

Human melanocortin (MC5) = biological target: T4, Human melanocortin (MC5) (Homo sapiens, UniProt P33032); assay: Radioligand binding, human melanocortin MC5 membranes, FlashPlate, [125I]-NDP-αMSH; conditions: compound at 10 μM; [125I]-NDP-αMSH
T4 construct: purchased Perkin Elmer Biosignal
Procedure, shortened: as §1

Human Melanocortin (MC4) = biological target: T5, Human Melanocortin (MC4) (Homo sapiens, UniProt P32245); assay: Radioligand binding, human melanocortin MC4 membranes, FlashPlate, [125I]-NDP-αMSH; conditions: compound at 10 μM, [125I]-NDP-αMSH
T5 construct: purchased Perkin Elmer Biosignal
Procedure, shortened: as §1

Human δ-opioid (DOP) = biological target: T6, Human δ-opioid (DOP) (Homo sapiens, UniProt P41143); assay: Radioligand binding, human δ-opioid (DOP) membranes, FlashPlate, [3H]-Bremazocine; conditions: compound at 10 μM; [3H]-Bremazocine
T6 construct: purchased Perkin Elmer Biosignal
Procedure, shortened: as §1

Human κ-Opioid (KOP) = biological target: T7, Human κ-Opioid (KOP) (Homo sapiens, UniProt P41145); assay: Radioligand binding, human κ-opioid (KOP) membranes, filtration, [3H]-Diprenorphine; conditions: compound at 10 μM; [3H]-Diprenorphine
T7 construct: purchased Perkin Elmer Biosignal
Procedure, shortened: (§2)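 Membranes from cloned human receptors were incubated with compound and radioligand for 1 hour at room temperature. Bound ligand was collected on 0.3% PEI-soaked filters, washed with cold 50 mM Tris-HCl pH 7.4, and counted by scintillation. Percent inhibition was computed against DMSO totals and reference-ligand nonspecific wells.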

Human Melanocortin (MC3) = biological target: T8, Human Melanocortin (MC3) (Homo sapiens, UniProt P41968); assay: Radioligand binding, human melanocortin MC3 membranes, FlashPlate, [125I]-NDP-αMSH; conditions: compound at 10 μM, [125I]-NDP-αMSH
T8 construct: purchased Perkin Elmer Biosignal
Procedure, shortened: as §1

[2] = biological target: T9, Human neuropeptide Y (NPY-Y1) (Homo sapiens, UniProt P25929); assay: Radioligand binding, human neuropeptide Y NPY-Y1 membranes, FlashPlate, [125I]-PYY; conditions: compound at 10 μM; [125I]-PYY
T9 construct: purchased Perkin Elmer Biosignal
T9 sequence (P25929 1-384): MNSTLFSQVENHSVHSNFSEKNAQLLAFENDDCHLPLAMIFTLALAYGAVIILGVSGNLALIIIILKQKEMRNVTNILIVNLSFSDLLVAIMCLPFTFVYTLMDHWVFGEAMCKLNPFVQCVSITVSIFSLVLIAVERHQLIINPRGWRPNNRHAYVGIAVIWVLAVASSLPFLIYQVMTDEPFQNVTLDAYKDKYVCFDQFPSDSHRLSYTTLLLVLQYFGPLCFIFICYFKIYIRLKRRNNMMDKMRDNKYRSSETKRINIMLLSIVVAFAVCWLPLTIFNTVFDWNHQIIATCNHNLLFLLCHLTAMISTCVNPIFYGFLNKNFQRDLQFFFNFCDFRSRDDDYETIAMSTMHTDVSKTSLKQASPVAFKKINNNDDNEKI
Procedure, shortened: as §1

Human neurokinin (NK1) = biological target: T10, Human neurokinin (NK1) (Homo sapiens, UniProt P25103); assay: Radioligand binding, human neurokinin NK1 membranes, filtration, [125I]-Substance P; conditions: compound at 10 μM; [125I]-Substance P
T10 construct: purchased Perkin Elmer Biosignal
Procedure, shortened: as §2

Human opioid (ORL1) = biological target: T11, Human opioid (ORL1) (Homo sapiens, UniProt P41146); assay: Radioligand binding, human opioid ORL1 membranes, FlashPlate, [125I]-Nociceptin; conditions: compound at 10 μM, [125I]-Nociceptin
T11 construct: purchased Perkin Elmer Biosignal
Procedure, shortened: as §1

T5 sequence (P32245 whole entry): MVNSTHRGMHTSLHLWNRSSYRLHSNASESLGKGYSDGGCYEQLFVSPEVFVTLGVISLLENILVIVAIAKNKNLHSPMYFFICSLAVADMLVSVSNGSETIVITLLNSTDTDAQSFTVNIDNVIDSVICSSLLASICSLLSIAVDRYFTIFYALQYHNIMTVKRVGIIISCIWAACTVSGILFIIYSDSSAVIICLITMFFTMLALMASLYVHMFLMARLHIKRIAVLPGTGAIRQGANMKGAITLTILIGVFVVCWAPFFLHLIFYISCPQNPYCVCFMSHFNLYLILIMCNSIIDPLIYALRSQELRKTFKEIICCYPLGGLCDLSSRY
T11 sequence (P41146 whole entry): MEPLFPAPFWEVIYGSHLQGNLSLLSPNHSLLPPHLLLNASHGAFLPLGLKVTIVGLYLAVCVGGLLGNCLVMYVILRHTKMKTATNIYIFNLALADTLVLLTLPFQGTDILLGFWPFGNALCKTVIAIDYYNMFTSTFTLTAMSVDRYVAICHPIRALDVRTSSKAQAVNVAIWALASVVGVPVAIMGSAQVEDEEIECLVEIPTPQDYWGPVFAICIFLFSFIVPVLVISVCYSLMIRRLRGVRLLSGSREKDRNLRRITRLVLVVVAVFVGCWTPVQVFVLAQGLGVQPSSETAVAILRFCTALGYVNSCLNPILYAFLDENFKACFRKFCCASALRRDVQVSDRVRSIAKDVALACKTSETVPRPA
T10 sequence (P25103 whole entry): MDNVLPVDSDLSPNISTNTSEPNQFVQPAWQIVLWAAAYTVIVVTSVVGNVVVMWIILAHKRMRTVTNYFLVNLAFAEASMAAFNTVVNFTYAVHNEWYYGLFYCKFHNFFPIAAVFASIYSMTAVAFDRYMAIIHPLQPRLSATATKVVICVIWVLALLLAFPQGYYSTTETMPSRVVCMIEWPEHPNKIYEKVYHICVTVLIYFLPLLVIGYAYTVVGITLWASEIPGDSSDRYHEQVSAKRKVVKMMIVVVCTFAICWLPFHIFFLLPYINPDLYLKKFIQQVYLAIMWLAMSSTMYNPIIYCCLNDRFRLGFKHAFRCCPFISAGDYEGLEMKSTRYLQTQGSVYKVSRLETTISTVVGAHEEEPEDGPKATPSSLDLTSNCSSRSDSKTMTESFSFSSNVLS
T4 sequence (P33032 whole entry): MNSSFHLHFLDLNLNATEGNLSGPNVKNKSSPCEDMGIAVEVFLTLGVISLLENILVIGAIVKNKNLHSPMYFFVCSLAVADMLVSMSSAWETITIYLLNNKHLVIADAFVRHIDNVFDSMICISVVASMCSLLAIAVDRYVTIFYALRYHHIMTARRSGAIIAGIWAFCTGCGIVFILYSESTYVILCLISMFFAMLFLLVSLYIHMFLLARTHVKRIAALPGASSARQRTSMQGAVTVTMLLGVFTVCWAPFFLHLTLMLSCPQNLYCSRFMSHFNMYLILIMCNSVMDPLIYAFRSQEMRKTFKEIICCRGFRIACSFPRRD
T6 sequence (P41143 whole entry): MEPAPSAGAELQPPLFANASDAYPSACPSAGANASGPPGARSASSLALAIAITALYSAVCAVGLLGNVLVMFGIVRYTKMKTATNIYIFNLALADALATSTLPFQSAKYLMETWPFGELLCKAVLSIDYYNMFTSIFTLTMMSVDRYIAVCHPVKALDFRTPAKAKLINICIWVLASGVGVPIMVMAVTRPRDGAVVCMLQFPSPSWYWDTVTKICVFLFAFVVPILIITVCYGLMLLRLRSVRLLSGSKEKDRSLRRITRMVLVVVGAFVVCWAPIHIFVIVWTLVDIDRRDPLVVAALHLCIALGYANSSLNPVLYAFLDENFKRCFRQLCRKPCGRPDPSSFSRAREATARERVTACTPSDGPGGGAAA
T8 sequence (P41968 whole entry): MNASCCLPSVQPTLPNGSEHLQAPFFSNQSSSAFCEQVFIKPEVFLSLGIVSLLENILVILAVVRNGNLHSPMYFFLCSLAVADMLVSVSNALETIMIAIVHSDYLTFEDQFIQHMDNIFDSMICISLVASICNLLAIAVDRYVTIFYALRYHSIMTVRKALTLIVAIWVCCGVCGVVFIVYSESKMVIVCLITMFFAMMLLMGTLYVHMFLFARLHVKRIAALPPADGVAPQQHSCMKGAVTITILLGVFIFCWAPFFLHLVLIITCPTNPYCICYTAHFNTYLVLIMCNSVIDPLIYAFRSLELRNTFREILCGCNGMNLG
T2 sequence (P35372 whole entry): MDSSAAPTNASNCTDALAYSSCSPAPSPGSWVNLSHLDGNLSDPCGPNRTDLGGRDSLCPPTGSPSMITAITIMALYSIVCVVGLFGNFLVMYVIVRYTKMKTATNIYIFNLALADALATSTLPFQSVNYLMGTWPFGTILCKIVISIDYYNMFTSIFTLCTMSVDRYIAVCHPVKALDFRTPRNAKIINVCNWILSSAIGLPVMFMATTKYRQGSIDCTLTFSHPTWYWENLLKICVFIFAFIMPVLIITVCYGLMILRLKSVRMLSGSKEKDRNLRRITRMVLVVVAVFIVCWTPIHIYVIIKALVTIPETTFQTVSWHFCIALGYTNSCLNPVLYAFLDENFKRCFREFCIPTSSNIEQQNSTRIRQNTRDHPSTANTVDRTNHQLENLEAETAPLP
T7 sequence (P41145 whole entry): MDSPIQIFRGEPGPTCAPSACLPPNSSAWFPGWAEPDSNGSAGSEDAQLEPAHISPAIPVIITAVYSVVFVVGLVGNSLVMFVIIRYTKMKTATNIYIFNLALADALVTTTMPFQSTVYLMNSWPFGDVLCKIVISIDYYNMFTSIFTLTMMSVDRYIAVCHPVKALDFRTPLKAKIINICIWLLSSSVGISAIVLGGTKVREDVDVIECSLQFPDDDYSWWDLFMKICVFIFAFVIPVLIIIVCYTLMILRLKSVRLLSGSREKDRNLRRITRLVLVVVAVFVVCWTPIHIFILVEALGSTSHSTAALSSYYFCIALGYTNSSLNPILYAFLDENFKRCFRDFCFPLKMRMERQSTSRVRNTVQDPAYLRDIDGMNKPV
T1 sequence (Q99705 whole entry): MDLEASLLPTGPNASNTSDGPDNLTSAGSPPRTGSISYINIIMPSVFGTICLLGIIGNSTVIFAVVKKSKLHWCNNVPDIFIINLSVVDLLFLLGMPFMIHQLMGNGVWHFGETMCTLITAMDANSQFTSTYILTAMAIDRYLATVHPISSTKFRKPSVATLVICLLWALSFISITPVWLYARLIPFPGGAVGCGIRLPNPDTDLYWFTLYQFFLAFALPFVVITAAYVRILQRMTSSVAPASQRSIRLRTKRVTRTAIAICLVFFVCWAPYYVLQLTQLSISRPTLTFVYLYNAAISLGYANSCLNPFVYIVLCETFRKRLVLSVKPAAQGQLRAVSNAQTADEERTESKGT

SMILES | A6: inhibition of radioligand binding, human melanin-concentrating hormone (MCH1) [1] | A7: inhibition of radioligand binding, human μ-opioid (MOP) (Human μ-opioid (MOP)) | A11: inhibition of radioligand binding, mouse urotensin (mUR2) (Mouse urotensin (mUR2)) | A5: inhibition of radioligand binding, human melanocortin (MC5) (Human melanocortin (MC5)) | A4: inhibition of radioligand binding, human melanocortin (MC4) (Human Melanocortin (MC4)) | A1: inhibition of radioligand binding, human δ-opioid (DOP) (Human δ-opioid (DOP)) | A2: inhibition of radioligand binding, human κ-opioid (KOP) (Human κ-Opioid (KOP)) | A3: inhibition of radioligand binding, human melanocortin (MC3) (Human Melanocortin (MC3)) | A9: inhibition of radioligand binding, human neuropeptide Y (NPY-Y1) [2] | A8: inhibition of radioligand binding, human neurokinin (NK1) (Human neurokinin (NK1)) | A10: inhibition of radioligand binding, human opioid (ORL1) (Human opioid (ORL1)) | A6: inhibition of radioligand binding, human melanin-concentrating hormone (MCH1) ([1]; 10 µM) | further results
CSC1O[C@H](COCc2ccc3ccccc3c2)[C@@H](O)[C@@H](OCc2ccc(-c3ccccc3)cc2)[C@H]1NC(=O)CNC(=N)N (stereo partly drawn) [compound 296] | − (“−” indicates less than 50% inhibition at 10 μM) | − (“−” indicates less than 50% inhibition at 10 μM) | − (“−” indicates less than 50% inhibition at 10 μM) | − (“−” indicates less than 50% inhibition at 10 μM) | − (“−” indicates less than 50% inhibition at 10 μM) | − (“−” indicates less than 50% inhibition at 10 μM) | − (“−” indicates less than 50% inhibition at 10 μM) | − (“−” indicates less than 50% inhibition at 10 μM) | − (“−” indicates less than 50% inhibition at 10 μM) | + (“+” indicates greater than 50% inhibition at 10 μM) | − (“−” indicates less than 50% inhibition at 10 μM) | – | –
CO[C@H]1[C@H](O)[C@@H](COCc2ccc(-c3ccccc3)cc2)OC(OCc2cccc(O)c2)[C@@H]1NC(=O)CNC(=N)N (stereo partly drawn) [compound 162] | – | – | – | – | – | – | – | – | – | – | – | – | A6 radioligand binding, percentage inhibition [1]: − (“−” indicates less than 50% inhibition at 10 μM); A7 radioligand binding, percentage inhibition (Human μ-opioid (MOP)): − (“−” indicates less than 50% inhibition at 10 μM); A11 radioligand binding, percentage inhibition (Mouse urotensin (mUR2)): − (“−” indicates less than 50% inhibition at 10 μM); A5 radioligand binding, percentage inhibition (Human melanocortin (MC5)): − (“−” indicates less than 50% inhibition at 10 μM); A4 radioligand binding, percentage inhibition (Human Melanocortin (MC4)): − (“−” indicates less than 50% inhibition at 10 μM); A1 radioligand binding, percentage inhibition (Human δ-opioid (DOP)): − (“−” indicates less than 50% inhibition at 10 μM); A2 radioligand binding, percentage inhibition (Human κ-Opioid (KOP)): − (“−” indicates less than 50% inhibition at 10 μM); A3 radioligand binding, percentage inhibition (Human Melanocortin (MC3)): − (“−” indicates less than 50% inhibition at 10 μM); A9 radioligand binding, percentage inhibition [2]: − (“−” indicates less than 50% inhibition at 10 μM); A8 radioligand binding, percentage inhibition (Human neurokinin (NK1)): + (“+” indicates greater than 50% inhibition at 10 μM); A10 radioligand binding, percentage inhibition (Human opioid (ORL1)): − (“−” indicates less than 50% inhibition at 10 μM)
NCCCC(=O)NC1C(OCc2ccc(Cl)cc2)OC(COCc2ccc3ccccc3c2)C(O)C1OCc1ccc(Cl)cc1 (single isomer, unassigned) [compound 489] | – | + (“+” indicates greater than 50% inhibition at 10 μM) | − (“−” indicates less than 50% inhibition at 10 μM) | + (“+” indicates greater than 50% inhibition at 10 μM) | + (“+” indicates greater than 50% inhibition at 10 μM) | − (“−” indicates less than 50% inhibition at 10 μM) | − (“−” indicates less than 50% inhibition at 10 μM) | + (“+” indicates greater than 50% inhibition at 10 μM) | − (“−” indicates less than 50% inhibition at 10 μM) | + (“+” indicates greater than 50% inhibition at 10 μM) | + (“+” indicates greater than 50% inhibition at 10 μM) | − (“−” indicates less than 50% inhibition at 10 μM) | –
CSC1OC(COCc2ccc(Cl)cc2)C(O)C(OCc2ccc3ccccc3c2)C1NC(=O)CCCNC(=N)N (stereo not drawn) [compound 311] | − (“−” indicates less than 50% inhibition at 10 μM) | − (“−” indicates less than 50% inhibition at 10 μM) | − (“−” indicates less than 50% inhibition at 10 μM) | + (“+” indicates greater than 50% inhibition at 10 μM) | + (“+” indicates greater than 50% inhibition at 10 μM) | − (“−” indicates less than 50% inhibition at 10 μM) | − (“−” indicates less than 50% inhibition at 10 μM) | − (“−” indicates less than 50% inhibition at 10 μM) | − (“−” indicates less than 50% inhibition at 10 μM) | + (“+” indicates greater than 50% inhibition at 10 μM) | − (“−” indicates less than 50% inhibition at 10 μM) | – | –
NCCC(=O)NC1C(OCc2ccc(Cl)cc2)OC(COCc2ccc3ccccc3c2)C(O)C1OCc1ccc2ccccc2c1 (single isomer, unassigned) [compound 478] | – | − (“−” indicates less than 50% inhibition at 10 μM) | − (“−” indicates less than 50% inhibition at 10 μM) | + (“+” indicates greater than 50% inhibition at 10 μM) | – | − (“−” indicates less than 50% inhibition at 10 μM) | − (“−” indicates less than 50% inhibition at 10 μM) | – | − (“−” indicates less than 50% inhibition at 10 μM) | + (“+” indicates greater than 50% inhibition at 10 μM) | – | + (“+” indicates greater than 50% inhibition at 10 μM) | A4: inhibition of radioligand binding, human melanocortin (MC4) (Human Melanocortin (MC4); 10 µM): + (“+” indicates greater than 50% inhibition at 10 μM); A3: inhibition of radioligand binding, human melanocortin (MC3) (Human Melanocortin (MC3); 10 µM): + (“+” indicates greater than 50% inhibition at 10 μM); A10: inhibition of radioligand binding, human opioid (ORL1) (Human opioid (ORL1); 10 µM): − (“−” indicates less than 50% inhibition at 10 μM)
CSC1OC(COCc2ccc(Cl)cc2)C(O)C(OCc2cccc(N)c2)C1NC(=O)c1c[nH]c2ccccc12 (stereo not drawn) [compound 323] | − (“−” indicates less than 50% inhibition at 10 μM) | − (“−” indicates less than 50% inhibition at 10 μM) | − (“−” indicates less than 50% inhibition at 10 μM) | − (“−” indicates less than 50% inhibition at 10 μM) | − (“−” indicates less than 50% inhibition at 10 μM) | − (“−” indicates less than 50% inhibition at 10 μM) | − (“−” indicates less than 50% inhibition at 10 μM) | − (“−” indicates less than 50% inhibition at 10 μM) | − (“−” indicates less than 50% inhibition at 10 μM) | + (“+” indicates greater than 50% inhibition at 10 μM) | − (“−” indicates less than 50% inhibition at 10 μM) | – | –

Source: patent US20080009418A1, “Selective Inhibitors” (Alchemia LTD., priority 2004, published 2008)
